Data: PubChem BioAssay (NCI)
Values joined by “and” are separate entries in the source; they are usually repeats but may differ in a detail not shown here. Equal values may be shown once.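 Interpolation was linear, between the two tested concentrations surrounding the appropriate level; five concentrations were tested over 48 hours in 96-well plates. GI50 is the concentration that inhibits growth by half. TGI: total growth inhibition.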 Where a SMILES comes first, the peptide text is derived from it. The star is where a group is joined. Cbz = O=C(OCc1ccccc1)*; Boc = CC(C)(C)OC(=O)*; OSu = O=C1CCC(=O)N1O*; Bn = c1ccc(C*)cc1

Experiments:
Assay in all cases: inhibition of tumour cell growth, NCI panel, 48 h
A549 NSCLC = system: A549 NSCLC
CCRF-CEM leukemia = system: CCRF-CEM leukemia
DU-145 prostate = system: DU-145 prostate
LOX IMVI melanoma = system: LOX IMVI melanoma
MCF7 breast = system: MCF7 breast
OVCAR-4 ovarian = system: OVCAR-4 ovarian
PC-3 prostate = system: PC-3 prostate
RPMI-8226 leukemia = system: RPMI-8226 leukemia
SK-MEL-28 melanoma = system: SK-MEL-28 melanoma
SNB-75 CNS = system: SNB-75 CNS
NCI-H522 lung = system: NCI-H522 lung
HT29 colon = system: HT29 colon
HS 578T breast = system: HS 578T breast

Row | Compound | TGI (A549 NSCLC) | TGI (CCRF-CEM leukemia) [µM] | TGI (DU-145 prostate) | TGI (LOX IMVI melanoma) | TGI (MCF7 breast) | TGI (OVCAR-4 ovarian) | TGI (PC-3 prostate) | TGI (RPMI-8226 leukemia) | TGI (SK-MEL-28 melanoma) | TGI (SNB-75 CNS) | TGI (NCI-H522 lung) | TGI (HT29 colon) | TGI (HS 578T breast) [µM] | GI50 (LOX IMVI melanoma) [µM] | GI50 (MCF7 breast) [µM] | GI50 (RPMI-8226 leukemia) [µM] | GI50 (SK-MEL-28 melanoma) | GI50 (SNB-75 CNS) [µM]
1 | CN(C)S(=O)(=O)/N=C/c1cccc(/C=N/S(=O)(=O)N(C)C)c1 | > 100 µM | > 100 | > 100 µM | > 100 µM | > 100 µM | > 100 µM | > 100 µM | > 100 µM | > 100 µM | 92.8 µM |  |  |  |  |  |  |  | 
2 | COC(=O)/C=C1/CCC(C)(C(=O)NS(=O)(=O)c2ccc(C)cc2)C1(C)C (stereo unspecified) | > 100 µM | > 100 | > 100 µM | > 100 µM | > 100 µM | > 100 µM | > 100 µM | > 100 µM | > 100 µM |  | > 100 µM |  |  |  |  |  |  | 
3 | O=C(N=Nc1cccc(Cl)c1)NNc1cccc(Cl)c1 | 94.6 µM | 48.5 | 41.8 µM | 26.8 µM |  | 52.6 µM | 36 µM | 56.8 µM | 41 µM | > 100 µM | 42.6 µM | 43.5 µM |  |  |  |  |  | 
4 | O=C(O)c1cc(/C=C/c2cc(O)ccc2O)ccc1O | > 10 µM | > 10 | > 10 µM | > 10 µM | > 10 µM | > 10 µM | > 10 µM |  |  |  | > 10 µM | > 10 µM | > 10 |  |  |  |  | 
5 | COc1cc(C2C(C#N)=C(N)OC3=C2CCS(=O)(=O)c2ccc(C)cc23)cc(OC)c1OC (stereo unspecified) | > 100 µM | > 100 | > 100 µM | > 100 µM |  | > 100 µM | > 100 µM | > 100 µM | > 100 µM | > 100 µM | > 100 µM | > 100 µM | > 100 |  |  |  |  | 
6 | CC(C)(C)OC(=O)NCCc1cccc2c1oc1c(CCC(=O)O)cccc12 | > 100 µM | > 100 |  | > 100 µM |  | > 100 µM |  | > 100 µM | > 100 µM | > 100 µM | > 100 µM | > 100 µM |  |  |  |  |  | 
7 | C=C(C)[C@H]1C=C[C@@H](OC(=O)c2cccnc2)[C@@]23CO[C@@](C)([C@H](OC(=O)c4cccnc4)[C@@]4(OC(C)=O)C[C@H](C)[C@H](OCCC)[C@@H]4[C@H]2OC(C)=O)[C@H]13 |  | > 15 | > 15 µM | > 15 µM | > 15 µM | > 15 µM | > 15 µM | > 15 µM |  | > 15 µM | > 15 µM |  | > 15 |  |  |  |  | 
8 | CN(NC(=O)c1cccs1)C1=NCCCCN1 | > 100 µM | > 100 |  | > 100 µM | > 100 µM | > 100 µM | > 100 µM | > 100 µM | > 100 µM | > 100 µM | > 100 µM | > 100 µM | > 100 |  |  |  |  | 
9 | NC(=S)N/N=C1\NC(=O)/C(=C/c2ccc3c(c2)OCO3)S1 | > 100 µM |  | 88 µM | 85.2 µM | > 100 µM | 75.8 µM |  |  | 78.7 µM | 52.6 µM |  | 82.9 µM |  |  |  |  |  | 
10 | C=C[C@@H]1C[C@]2(C(=O)OC)Cc3nc4ccccc4nc3CC(C(=O)OC)=C2O1 | > 100 µM | > 100 | > 100 µM | > 100 µM | > 100 µM | > 100 µM | > 100 µM | > 100 µM | > 100 µM |  | > 100 µM | > 100 µM | > 100 |  |  |  |  | 
11 | CCN(CC)CCNC(=O)c1cc2cc(NC(=O)c3cc4cc(NC(=O)c5cc6cc(N)ccc6[nH]5)ccc4[nH]3)ccc2[nH]1 | > 100 µM | > 100 | > 100 µM | > 100 µM |  | > 100 µM | > 100 µM | > 100 µM | > 100 µM | > 100 µM | > 100 µM | > 100 µM | > 100 |  |  |  |  | 
12 | Cc1nc2c(=O)n(-c3ccccc3)c3ccccc3c2o1 | > 100 µM | > 100 | > 100 µM | > 100 µM | > 100 µM | > 100 µM | > 100 µM | > 100 µM | > 100 µM | > 100 µM |  | > 100 µM | > 100 |  |  |  |  | 
13 | Nc1ccn(C2CCC(CO)O2)c(=S)n1 (stereo unspecified) | > 100 µM | > 100 | > 100 µM | > 100 µM | > 100 µM |  | > 100 µM | > 100 µM |  | > 100 µM | > 100 µM | > 100 µM | > 100 |  |  |  |  | 
14 | CC1Oc2c(c(=O)oc3ccccc23)[C@@]1(C)CC1C[C@H](C)C(=O)O1 (stereo partly specified) | > 100 µM | 32.9 | > 100 µM | > 100 µM | > 100 µM |  | > 100 µM | 77.4 µM | 38.7 µM | > 100 µM | 34.2 µM | 71.5 µM | > 100 |  |  |  |  | 
15 | COc1ccc2[nH]cc([C@@H]3C4CCC(C4)[C@H]3NCc3cccc(CN[C@H]4C5CCC(C5)[C@@H]4c4c[nH]c5ccc(OC)cc45)c3)c2c1 | 2.64 µM and 2.99 µM | 1.08 | 3.31 µM and 3.08 µM | 0.328 µM and 0.605 µM | 2.25 µM and 2.86 µM | 2.77 µM and 2.75 µM | 2.93 µM and 2.59 µM | 1.65 µM and 1.26 µM | 3.05 µM and 3.07 µM | 2.59 µM and 2.03 µM | 2.48 µM and 2.83 µM | 1.81 µM and 0.63 µM |  | 0.184 | 0.805 | 0.66 | 1.67 µM and 1.68 µM | 0.785
16 | CC(C)(C)OC(=O)NC(Cc1ccc(OCc2ccccc2)cc1)C(=O)NC(CCCCNC(=O)OCc1ccccc1)C(=O)ON1C(=O)CCC1=O (stereo unspecified) (Boc-Tyr(Bn)-Lys(Cbz)-OSu; configuration not given here) | > 100 µM |  |  |  | 44.3 µM |  | 57.7 µM | 45.3 µM | 30.8 µM | 54.9 µM |  | 80.2 µM | 67.1 |  |  |  |  | 
17 | CNC(=O)N(CCC#N)CCCN(C(=O)NC)c1ccccc1 | > 100 µM | > 100 | > 100 µM | > 100 µM | > 100 µM | > 100 µM | > 100 µM | > 100 µM | > 100 µM | > 100 µM | > 100 µM | > 100 µM |  |  |  |  |  | 
18 | Cc1ncc2c(=O)c3c(oc2n1)c1ccccc1n3Cc1ccccc1 | > 100 µM | > 100 | > 100 µM | > 100 µM | > 100 µM |  | > 100 µM | > 100 µM | > 100 µM | > 100 µM | > 100 µM | > 100 µM | > 100 |  |  |  |  | 
19 | CCc1n[nH]c(=O)n1/N=C/c1ccc(C)cc1 | > 100 µM | > 100 | > 100 µM | > 100 µM | > 100 µM | > 100 µM |  | > 100 µM | > 100 µM |  | > 100 µM | > 100 µM | 44.3 |  |  |  |  | 
